Source: patent US20140199714A1, “METHOD FOR DETECTING CANCER CELLS METASTASIZING INTO SENTINEL LYMPH NODE” (SHINSHU UNIVERSITY, priority 2008, published 2014)

Experiments:
[1] = tested on: attachment of carcinoma cells to human LECs; test: In vitro human LEC attachment assay (ATP or MDA-MB-231 supernatant stimulation); type: cell-based; details: 48 hrs. stimulation (10^−7M ATP or MDA-MB-231 supernatant) vs DMEM/F12 Ham negative control; p<0.01; n=5
Method: The human LECs were plated to form a monolayer on type I collagen-coated 35 mm plates and incubated to confluence at 37° C. in 5% O2, 5% CO2, and 90% N2. The LECs were kept in serum-starved medium of EBM-2 with 3% FBS. Selected plates were treated with 10^−7M ATP or the supernatant of culture medium of MDA-MB-231 cells for 48 hrs. In some experiments, 10^−6M suramin was simultaneously added to the plates during 48 hrs. treatment with 10^−7M ATP or the culture medium supernatant of MDA-MB-231 cells.
In some experiments, the plates were also treated with anti-human-ICAM-1 antibody (available from R&D Systems, US) for 30 min after 48 hrs. treatment with the culture medium supernatant of MDA-MB-231 or 10^−7M ATP. Breast carcinoma cells stained with PKH26 fluorescent dye (available from SIGMA, US) were then plated at 5×10^4 cells per plate and incubated for 30 min. at 37° C. Unbound cells were removed by aspiration and the plates washed with DMEM/F12 three times. Attachment was quantitated by counting cells under ×100 magnification using a microscope (available from Leica, Switzerland).

[2] = tested on: ICAM-1 on human LECs; test: Immunohistochemical expression of ICAM-1 on cultured human LECs; type: cell-based
[3] = tested on: prostate cancer cells; details: via P2 receptors; cited from earlier work
[4] = tested on: E-selectin on human LECs; test: Immunohistochemical expression of E-selectin on cultured human LECs; type: cell-based; details: 18 hrs.-stimulation with 10 ng/mL TNF-α or 100 ng/mL LPS
Method: (§1) Using an indirect immunohistochemical technique, the inventors examined the effects of the supernatants of culture medium of two kinds of carcinoma cells, MDA-MB-231 and MCF-7, on the expression of adhesion molecules such as E-selectin, P-selectin, vascular cell adhesion molecule (VCAM)-1, and intercellular adhesion molecule (ICAM)-1 on the human LECs. The carcinoma cells were plated in DMEM/F12 with 10% FBS, which was replaced the following day with DMEM/F12 with 3% FBS, and then collected after overnight culture. The collected solution was centrifuged at 2,000 rpm for 5 min. at 4° C. To examine the effects of the supernatants on the expression of the adhesion molecules on the human LECs, 1 mL of each collected solution was added to starvation culture medium, EBM-2 with 3% FBS of the human LECs, and then stimulated for 48 hrs. on the cells. In some experiments, the supernatant solutions at different concentrations (1/100 or 1/10,000 dilution) were constructed with appropriate volumes of DMEM/F12 with 3% FBS.
(§2) Indirect immunohistochemical studies were performed on the cultured LECs seeded or glass slides coated with type I collagen, and then the cells were fixed with 3.3% formalin in phosphate-buffered saline solution (PBS), for 20 min. at room temperature. The cells were washed three times with PBS, and then incubated overnight at 4° C. with primary polyclonal human antisera to E-selectin/CD62E (dilution 10 μg/mL, available from R&D Systems, US), P-selectin/CD62P (dilution 10 μg/mL, available from R&D Systems, US), VCAM-1/CD106 (dilution 10 μg/mL, available from R&D Systems, US), and ICAM-1/CD54 (dilution 10 μg/mL, available from R&D Systems, US).
(§3) Before primary staining, the cultured cells were permeabilized with 0.1% TRITON-X. After washing three times in PBS, the cells were incubated for 1 hr. at room temperature with 1:100 diluted ALEXA FLUOR 488 donkey anti-mouse IgG (available from Invitrogen, US). The nuclei of cultured cells were counter-stained and mounted with PROLONG GOLD antifade reagent with 4′-6-diamidine-2-phenylindole (DAPI) (available from Molecular Probes, US), examined by a fluorescent microscope (Leica, Switzerland), and photographed.
(§4) Immunohistochemistry was performed on the cultured human LECs or the fresh-frozen SLNs isolated from the breast cancer patients. In brief, the cultured LECs were fixed with 10% formalin in the phosphate-buffered saline solution (PBS) at room temperature. The cells were incubated for 4 hrs. at room temperature with primary polyclonal human antisera platelet-endothelial cell adhesion molecule (PECAM)-1 (dilution 1:100, available from BD Biosciences, US), lymphatic vessel endothelial hyaluronan receptor (LYVE)-1 (dilution 1:50, available from RELIATech, Germany), PROX-1 (dilution 1:50, available from AngioBio, US), podoplanin (dilution 1:50, available from AngioBio, US), vascular endothelium growth factor receptor 3 (VEGF R3) (dilution 1:50, available from Santa Cruz, US), E-selectin/CD62E (dilution 1:50, available from R&D systems, US), P-selectin/CD62P (dilution 1:50, available from R&D systems, US), vascular cell adhesion molecule (VCAM)-1/CD106 (dilution 1:50, available from R&D systems, US), and intercellular adhesion molecule (ICAM)-1/CD54 (dilution 1:50, available from R&D systems, US). Before the staining, permeabilization of the cultured cells with 0.1% TRITON-X was performed. Then, the cells were stained using the following antibodies: ALEXA FLUOR 488 chicken anti-rabbit IgG or ALEXA FLUOR 488 donkey anti-mouse IgG (available from Invitrogen, US). The nuclei of the cultured cells were counter-stained and mounted with ProLong Gold antifade reagent with 4′-6-diamidine-2-phenylindole (DAPI) (available from Molecular Probes, US). The cultured cells were examined by a fluorescent microscope (available from Leica, Germany) and photographed. […]

[5] = tested on: P-selectin on human LECs; test: Immunohistochemical expression of P-selectin on cultured human LECs; type: cell-based; details: 18 hrs.-stimulation with 10 ng/mL TNF-α or 100 ng/mL LPS
Method: as §1, §2
Before primary staining, the cultured cells were permeabilized with 0.1% TRITON-X. After washing three times in PBS, the cells were incubated for 1 hr. at room temperature with 1:100 diluted ALEXA FLUOR 488 donkey anti-mouse IgG (available from Invitrogen, US). […]

[6] = tested on: VCAM-1 on human LECs; test: Immunohistochemical expression of VCAM-1 on cultured human LECs; type: cell-based; details: 18 hrs.-stimulation with 10 ng/mL TNF-α or 100 ng/mL LPS
Method: as §1, §2, §3, §4

[7] = tested on: F-actin in LECs derived from human collecting lymph vessel; test: Staining of cytoskeletal protein F-actin in human LECs; type: cell-based; details: 10 ng/mL TNF-α; 1 ng/mL and 10 ng/mL IL-1β; 2 hrs. at 37° C.; vs negative control
Method: LECs derived from human collecting lymph vessel, which were transplanted into a culture system, were plated on glass slide, and repeatedly subcultured to confluence. Stimulating factors of 10 ng/mL of tumor necrosis factor-α (TNF-α) of Catalog No. T-0157 (available from SIGMA, US), 1 ng/mL and 10 ng/mL of interleukin-1β (IL-1β) of Catalog No. 200-01B (available from PeproTech, US) were respectively dissolved in EBM-2 containing 3% FBS of Catalog No. CC-3156 (available from Sankyo Junyaku Co., Ltd., Japan) and added onto the cells, and then the cells were incubated for 2 hrs. at 37° C. They were fixed with 3.7% formalin. They were washed with PBS solution, and then still stood in PBS solution containing 0.1% TRITON X-100 of Catalog No. X-100 (available from SIGMA, US) for 5 min. Additionally they were washed with PBS solution, and then phalloidin-FITC antibody of Catalog No. P-5282 (available from SIGMA, US) diluted 500 times with PBS solution containing 0.1% BSA was added thereto. They were still stood for 2 hrs. at room temperature. After they were washed with PBS solution, and mounted in MOBI GLOW MOUNTING MEDIUM. Also negative control was similarly prepared except for using no stimulating factor. […] The LECs of the negative control without the stimulating factor indicate obscure green fluorescence, and there were few expression of F-actin.

Molecule	in vitro attachment of carcinoma cells to human LECs [1]	expression of ICAM-1 on human LECs ([2]; 10^−8 or 10^−7M ATP for 48 hrs.)	inhibition of growth of prostate cancer cells in vitro [3]	expression of E-selectin on human LECs (positive controls) [4]	expression of P-selectin on human LECs (positive controls) [5]	expression of VCAM-1 on human LECs (positive controls) [6]	expression of F-actin (phalloidin-FITC fluorescence) [7]	expression of ICAM-1 on human LECs (positive controls) ([2]; 18 hrs.-stimulation with 10 ng/mL TNF-α or 100 ng/mL LPS)
Nc1ncnc2c1ncn2[C@@H]1O[C@H](COP(=O)(O)OP(=O)(O)OP(=O)(O)O)[C@@H](O)[C@H]1O [ATP]	significant increase	marked expression	up to 90%	–	–	–	–	–
TNF-α	–	–	–	marked expression	marked expression	marked expression	increase of expression of F-actin	marked expression
